Laboratory results from US20250134867A1, “METHOD FOR MODULATING LIPID METABOLISM, AMELIORATING NON-ALCOHOLIC FATTY LIVER DISEASE AND METABOLIC SYNDROME BY USING 6-METHOXYBENZOXAZOLINONE” (Taichung District Agricultural Research and Extension …, priority 2023, published 2025).

Tests used:
[1] = tested on: adipose triglyceride lipase (ATGL); assay: Western blot analysis, ATGL expression in OA-induced HuS-E/2 cells; format: cell-based, human; conditions: CX at 50-400 μM, 0.1 mM OA-induced HuS-E/2 cells
Description: The procedure regarding Western blot analysis is as follows. For western blot analysis, an equal amount of protein from each sample was resolved by sodium dodecyl sulfate polyacrylamide gel electrophoresis (SDS-PAGE) and then transferred to polyvinylidene fluoride (PVDF) membranes. Primary antibodies against AMPK (Cat. GTX103487), adipose triglyceride lipase (ATGL) (Cat. GTX109941), carnitine palmitoyl-transferase 1 (CPT1) (Cat. GTX114337), and β-actin (Cat. GTX109639) were from GeneTex (Taiwan), and those against pAMPK (Cat. AP0432), phospho acetyl-CoA carboxylase (pACC) (Cat. AP0298), ACC (Cat. A15606), and fatty acid synthase (FAS) (Cat. A21182) was from ABclonal (China). Horseradish peroxidase (HRP)-conjugated secondary antibodies were from Jackson ImmunoResearch Laboratories, Inc., USA. WesternBright® ECL kits (Advansta Inc., USA) were used for protein visualization. Levels of protein expression were quantified by densitometric analyses.

[2] = tested on: HFD-induced obese C57BL/6J mice; assay: Body weight gain, food intake and food efficiency ratio in HFD-induced obese mice; format: in vivo; conditions: vs HFD group; for food efficiency ratio (FER): 12 weeks; for body weight gain: HFD mice, oral gavage 12 weeks, CX 10 and 30 mg/kg/day, EGCG 30 mg/kg/day
Description: (§1) To determine the effect of CX (Sigma, Inc., USA) on obesity and non-alcoholic fatty liver disease (NAFLD) in vivo, we established an experimental approach using HFD-induced obese C57BL/6J mice. CX was suspended in 0.5% methylcellulose solution for oral administration. The animals used in the examples are described below. 5-week-old male C57BL/6J mice were purchased from The National Laboratory Animal Center, Taipei, Taiwan and were maintained in a temperature-controlled room on a 12-h light-dark cycle. They were housed with four per cage and had free access to food and drinking water. Mice fed with a standard diet and adapted to the environment for 1 week were subsequently divided randomly into five groups. The ND group (n=8) continued on the same diet, whereas the other four groups (n=8 per group) were switched to the HFD (494 kcal/100 g, 45% energy as fat; TestDiet Inc., USA). Among the four HFD groups, three groups started to receive CX at 10 mg/kg/day (CX10 group), CX at 30 mg/kg/day (CX30 group), and epigallocatechin gallate (EGCG) (Sigma, Inc., USA) at 30 mg/kg/day (EGCG30 group) by oral gavage. EGCG was suspended in 0.5% methylcellulose solution for oral administration. Food consumption and weight gain were measured daily and weekly, respectively. After 12 weeks, all mice were sacrificed. Serum samples, liver tissue, epididymis adipose tissue and feces were harvested for further analysis. The experimental protocol was approved by the Animal Research Committee of the National Yang Ming Chiao Tung University (IACUC no. 1091013), and all procedures followed The Guide for the Care and Use of Laboratory Animals (NIH publication, 85-23, revised 1996) and the guidelines of the Animal Welfare Act, Taiwan.

OA-induced HuS-E/2 cells = assay: Oil Red O staining of lipid accumulation in oleic acid (OA)-induced cells; format: cell-based, human; conditions: 0.1 mM OA, 18 h
Description: To evaluate the effect of CX on lipid accumulation, HuS-E/2 cells were incubated with or without 0.1 mM OA (Cat. O1383) in the presence or absence of CX for 18 hours. The OA stock solution was 3.15 M in DMSO, and stored at −20° C.
The procedure regarding oil red O staining is as follows. Oil Red O stain (Cat. O0625) were from Sigma-Aldrich, USA. The Oil Red O stain stock solution was 3 mg/mL in isopropanol, and stored at room temperature. For microscopic observation, cells were fixed in 4% paraformaldehyde in phosphate-buffered saline (PBS) for 30 min at room temperature, stained with Oil Red O stain working solution (60% Oil Red O stock solution and 40% distilled water) for 1 h at room temperature, and then rinsed with water. Micrographs were captured under a microscope. For quantitative analysis of cellular lipids, cells were washed three times with ice-cold PBS, fixed with 10% formalin for 1 h, washed, stained with Oil Red O solution for 1 h at room temperature, and washed with water to remove excess dye. Cell-bound Oil Red O stain was dissolved in isopropanol at room temperature for 5 min with shaking. The absorbance at 510 nm was measured in a spectrophotometer. The relative lipid content is calculated by setting the readouts of those receiving vehicles to 0% and those receiving free fatty acids alone to 100%.

[3] = tested on: HFD-induced obese C57BL/6J mice; assay: Fat deposition (eWAT) and serum lipid levels in HFD-induced obese mice; format: in vivo; conditions: 12 weeks oral; for HFD-induced increase in the mass of eWAT / serum LDL-C / serum HDL cholesterol (HDL-C) / serum total cholesterol (TC) / serum triglyceride (TG): HFD mice; for HFD-induced increase in the mass of eWAT: CX 10 and 30 mg/kg/day, EGCG 30 mg/kg/day; for serum LDL-C: calculated as (TC)-(HDL-C)-(TG/5); for serum HDL cholesterol (HDL-C) / serum total cholesterol (TC) / serum triglyceride (TG): vs HFD group; for adipocyte diameters: compared with the HFD group
Description: as §1, with “The” for “To determine the effect of CX (Sigma, Inc., USA) on obesity and non-alcoholic fatty liver disease (NAFLD) in vivo, we established an experimental approach using HFD-induced obese C57BL/6J mice. CX was suspended in 0.5% methylcellulose solution for oral administration. The”, “Taiwan. The procedure regarding immunohistochemical tissue characterization is as follows. During dissection of the mice, epididymis adipose tissue and liver were isolated, weighed, and subsequently fixed in 10% paraformaldehyde in PBS. After overnight fixation, tissues were embedded in paraffin for hematoxylin and eosin (H&E) staining. All specimens were observed microscopically (Carl Zeiss Inc., Germany) at 200× magnification. […] The procedure regarding biochemical characterization is as follows. The serum triglyceride (TG), total cholesterol (TC), high-density lipoprotein-cholesterol (HDL-C), glutamic oxaloacetic transaminase (GOT), glutamic pyruvic transaminase (GPT), albumin (ALB), uric acid (UA), and creatinine (CRE) levels were measured using enzymatic assay kits with a FUJI DRI-CHEM analyzer (Fujifilm, Tokyo, Japan). The LDL-C level was calculated as [(TC)-(HDL-C)-(TG/5)].” for “Taiwan.”

SMILES	ATGL expression [1]	food efficiency ratio (FER) ([2]; 10 mg/kg/day oral gavage)	food efficiency ratio (FER) ([2]; 30 mg/kg/day oral gavage)	body weight gain [2]	lipid accumulation (micrographs, Oil Red O) (OA-induced HuS-E/2 cells; FIG. 2A)	lipid content (Oil Red O, absorbance 510 nm) (OA-induced HuS-E/2 cells; FIG. 2B)	HFD-induced increase in the mass of eWAT [3]	serum LDL-C [3]	serum HDL cholesterol (HDL-C) [3]	serum total cholesterol (TC) [3]	serum triglyceride (TG) [3]	adipocyte diameters [3]
COc1ccc2[nH]c(=O)oc2c1 [CX, 6-methoxybenzoxazolinone]	increased ATGL expression substantially	greatly reduced	greatly reduced	significantly prevented body weight gain	reduced lipid accumulation in a dose-dependent manner	diminished the lipid content	ameliorated	somewhat ameliorated	did not differ significantly from the HFD group	significantly lower than the HFD group	significantly lower than the HFD group	lower cell diameters and smaller cell size
O=C(O[C@@H]1Cc2c(O)cc(O)cc2O[C@@H]1c1cc(O)c(O)c(O)c1)c1cc(O)c(O)c(O)c1 [EGCG, epigallocatechin gallate, reference compound]				significantly prevented body weight gain			ameliorated	somewhat ameliorated	did not differ significantly from the HFD group	significantly lower than the HFD group	significantly lower than the HFD group	lower cell diameters and smaller cell size
